Data reported in US20220160703A1, “TUMOR-SELECTIVE COMBINATION THERAPY” (The Board of Regents of The University of Texas System, priority 2019, published 2022).

Experiments:
[1] = Aqueous solubility of DNQ in PBS by LC-MS; format: physicochemical; details: pH 7.4 phosphate buffered saline, 30 min sonication, filtered
Procedure: The aqueous solubility of DNQ at pH 7.4 in phosphate buffered saline (PBS) was measured by LC-MS. DNQ was sonicated for 30 minutes in PBS then undissolved solid was removed by filtration through a 0.45 μm syringe filter and the filtrate was analyzed by LC-MS (λ=275 nm, ESI-TOF in negative mode). The optimal sonication time was determined by sonicating DNQ for 1, 5, 10, and 30 minutes. While the concentration of DNQ in solution increased substantially between 1, 5, and 10 minutes, there was only a minor difference between 10 and 30 minutes. During the 30-minute sonication the water bath warmed to 45° C. (samples were cooled to room temperature before filtration). A calibration curve was generated from 1-100 μM by dissolving DNQ in methanol to a concentration of 500 μM and making dilutions of this stock in 80:20 water:methanol. The calibration curve (measure by UV absorbance) was linear over this range; 1 μM was approximately the limit of detection. […] The solution was very pale yellow.

[2] = Formulation of DNQ compounds in HPβCD; format: physicochemical
Text: This same neutral solution of DNQ in HPβCD cannot be made directly (i.e. without pH adjustment). […] The only proton on DNQ that might reasonably be deprotonated in aqueous base is the N—H. […] The protocol for formulating DNQ compounds in HPβCD is as follows: the DNQ compound is slurried in a 20% solution of HPβCD in pH 7.4 PBS and the pH is then increased by the addition of 10 M NaOH to induce dissolution of the DNQ compound. The pH is returned to pH 7.5-8.0 by the careful addition of 1 M HCl. A 3.3 mM solution of the DNQ compound can be made by this method which is stable at least 24 hours. This represents a 30-fold increase in solubility of DNQ over PBS alone. The inventors initially chose a 20% HPβCD solution.

NQO1 = NQO1 (Homo sapiens, UniProt P15559); test: NQO1-catalyzed futile redox cycle / processing in vitro; format: biochemical; details: compared with β-lap
[3] = test system: NQO1 positive tumor cell lines MC38, TC-1 and Ag104Ld; format: cell-based; details: MC38 and B16 NQO1 cells, β-lap 3 hr, catalase 1000 U/ml, survival 48 hr later
Procedure: (FIG. 1A) NQO1 positive tumor cell lines MC38, TC-1 and Ag104Ld and NQO1 negative cell lines Panc02 and B16 grown in 48-well plates were treated with β-lap (0-8 μM) for a 3 hr followed by washing and replacing medium. Cell viability was determined by Sulforhodamine B (SRB) Assay 4 days later. […] (FIG. 1C) MC38 cells with CRISPR-based NQO1 Knockout (MC38 NQO1KO #5) planted in 96-well plates were exposed to β-lap for 3 hr and cell survival was assessed 48 hr later. […] (FIG. 1E) MC38 cells were exposed to a lethal dose of β-lap (4 μM) for indicated times, then stained with 7-AAD and Annexin V followed by flow cytometry analysis. […] (FIG. 1H) MC38 and B16 NQO1 #1 cells were exposed to β-lap for a 3 hr. Catalase (1000 U/ml) was added and cell survival was assessed 48 hr later. (FIG. 1I) C57BL/6 mice (n=5/group) were transplanted with MC38 cells and treated with β-lap (0.03 mg, 0.1 mg or 0.3 mg, intratumorally; or 25 mg/kg, i.v.) every other day for four times. […] Tumor growth was monitored twice a week.
(FIG. 8A) NQO1 expression in multiple murine tumor lines was immunoblotted as indicated. […] Drugs were removed and survival assessed 5 days later. (FIG. 8C) Relative H2O2 levels were assessed in various cells treated with β-lap for 3 h at the indicated doses using CellRox-Glo. […] (FIG. 8D) TC-1 cells exposure to β-lap for 12 h, later PARP-1 and Caspase-3 levels were analyzed by western blotting assay. […]
(FIGS. 14A-C) NQO1 cells MC38 (A) and TC-1 (B) and NQO1^− cells B16 (C) were treated for 2 h with various doses of IB-DNQ±DIC (50 μM). Drugs were removed and survival assessed 6 days later. […] (FIGS. 14E-F) Relative NAD^+ (E) or ATP (F) levels were assessed in TC-1 cells exposed to various doses of IB-DNQ for 2 h. […] Comet tail lengths in a.u. were monitored at indicated time; and DSBs quantified by γH2AX foci/nuclei using immunofluorescence at indicated time (FIG. 14H). […]
(FIG. 21A) Viability of murine cell lines following IB-DNQ treatment for 4 h. […] (FIGS. 21D-E) DNA double strand break was assessed via comet assay (FIG. 21D) and γH2AX foci/nuclei immunofluorescence (FIG. 21E). […]

Chain of NQO1 (P15559 whole entry, species assumed): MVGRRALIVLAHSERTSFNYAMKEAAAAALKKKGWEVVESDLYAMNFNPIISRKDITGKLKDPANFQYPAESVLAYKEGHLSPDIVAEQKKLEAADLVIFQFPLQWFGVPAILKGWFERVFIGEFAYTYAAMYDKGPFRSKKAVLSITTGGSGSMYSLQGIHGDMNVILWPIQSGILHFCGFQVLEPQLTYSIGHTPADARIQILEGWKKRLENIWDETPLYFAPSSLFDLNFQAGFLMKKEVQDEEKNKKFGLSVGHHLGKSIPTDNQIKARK

For `Cc1cc(=O)[nH]c2c1C(=O)c1c(C)cc(=O)n(C)c1C2=O` [DNQ, Deoxynyboquinone], the “solubility of DNQ in PBS” value [1] was 115 µM, the “stability of the HPβCD solution” value ([2]; 3.3 mM solution in 20% HPβCD) was “at least 24 hours” and the “increase in solubility over PBS alone” value ([2]; 20% HPβCD) was 30 fold. The “concentration of solution that can be made in HPβCD” value ([2]; 20% HPβCD in pH 7.4 PBS, pH raised with NaOH then returned to pH 7.5-8.0) was 3.3 mM, the “concentration of solution permitted by 40% HPβCD” value ([2]; 40% HPβCD, concentration increases linearly with HPβCD) was 6.6 mM and the “efficiency of processing by NQO1 in vitro” value (NQO1) was “much more efficiently than β-lap”.
In the case of Catalase, the “effect of H2O2 scavenging on β-lap lethality” value [3] is reported as “significantly spared β-lap-mediated lethality”.
